# “And” between values parts separate entries of the source, which are not always exact repeats. Identical values can stand only once. Like-named read-outs stand apart in the source and are kept apart here.
# How the values were obtained:
# [1] = tested on: genotype 1a H77 subgenomic replicon; experiment: HCV replicon assay, genotype 1a H77; format: cell-based; settings: GT1a_H77 replicon, four days
# [2] = tested on: genotype 1b replicon (Con1 strain); experiment: HCV replicon assay, genotype 1b Con1; format: cell-based; settings: GT1b_Con1 replicon, four days
# [3] = tested on: genotype 2a J6/JFH-1 subgenomic replicon; experiment: HCV replicon assay, genotype 2a J6/JFH-1; format: cell-based; settings: GT2a_JFH-1 replicon, four days
# [4] = tested on: HCV 1a H77Sv2 infectious virus; experiment: Infectious virus assay, genotype 1a; format: cell-based; settings: GT1a_H77 infectious virus, En5-3 cells, three days
# [5] = tested on: HCV 2a JFH-1 infectious virus; experiment: Infectious virus assay, genotype 2a; format: cell-based; settings: GT2a_JFH-1 infectious virus, En5-3 cells, three days
# Huh7 cells = experiment: 8-day MTS cytotoxicity assay, Huh7; format: cell-based, human; settings: Huh7, eight days, MTS
# HepG2 cells [6] = experiment: 8-day MTS cytotoxicity assay, HepG2; format: cell-based, human; settings: HepG2, eight days, MTS
# BxPC3 cells = experiment: 8-day MTS cytotoxicity assay, BxPC3; format: cell-based, human; settings: BxPC3, eight days, MTS
# CEM cells [7] = experiment: 8-day MTS cytotoxicity assay, CEM; format: cell-based, human; settings: CEM, eight days, MTS
# HepG2 cells [8] = experiment: Mitochondrial COXII DNA and ribosomal DNA by real time PCR, HepG2; format: cell-based, human; settings: HepG2 cells; for CC90: fourteen days
# CEM cells [9] = experiment: Mitochondrial COXII DNA and ribosomal DNA by real time PCR, CEM; format: cell-based, human; settings: CEM cells; for CC90: fourteen days
# [10] = tested on: erythroid progenitor cells (CFU-E and BFU-E); experiment: Human bone marrow stem cell toxicity, 14-day colony formation, erythroid; format: cell-based; settings: read-out: IC50, erythroid progenitor cells (CFU-E and BFU-E); 14-day colony formation assay
# [11] = tested on: myeloid progenitor cells (CFU-GM); experiment: Human bone marrow stem cell toxicity, 14-day colony formation, myeloid; format: cell-based; settings: read-out: IC50, myeloid progenitor cells (CFU-GM); 14-day colony formation assay
# [12] = tested on: genotype 1b ET replicon, wild type; format: cell-based, HCV; settings: read-out: EC90 WT replicon
# [13] = tested on: ET replicon with NS5B S96T/N142T; experiment: microbe, parasite or virus in culture; format: cell-based, HCV
# [14] = tested on: Clone A wild type replicon; experiment: Cross resistance: Clone A wild type replicon, RT-PCR; format: cell-based, HCV; settings: read-out: EC90 WT replicon; Clone A wild type replicon, RT-PCR assay
# [15] = tested on: Clone A replicon with NS5B S282T; experiment: microbe, parasite or virus in culture; format: cell-based, HCV
# [16] = tested on: ET replicon with NS5B C316Y; experiment: microbe, parasite or virus in culture; format: cell-based, HCV
# [17] = tested on: ET replicon with NS5B M414T; experiment: microbe, parasite or virus in culture; format: cell-based, HCV
# [18] = tested on: ET replicon with NS5B M423T; format: cell-based, HCV
# [19] = tested on: ET replicon with NS5B P495L; experiment: microbe, parasite or virus in culture; format: cell-based, HCV
# ET-Lunet replicon cells = experiment: HCV replicon clearance and rebound study; format: cell-based; settings: for clearance of replicon RNA (colony formation after 14 days G418 without compound): 14 days treatment
# [20] = tested on: primary human hepatocytes; experiment: Metabolism of [3H]-PSI-353661 in primary human hepatocytes; format: in vitro ADME; settings: 5 μM [3H]-PSI-353661, up to 24 hours
# [21] = target: human cathepsin A (Cat A) (Homo sapiens, UniProt P10619); experiment: Hydrolysis of the carboxyl ester by cathepsin A; format: biochemical; settings: CatA, 100 μM substrate, 37 °C
# Chain of human cathepsin A (Cat A) (P10619 29-326 limits assumed): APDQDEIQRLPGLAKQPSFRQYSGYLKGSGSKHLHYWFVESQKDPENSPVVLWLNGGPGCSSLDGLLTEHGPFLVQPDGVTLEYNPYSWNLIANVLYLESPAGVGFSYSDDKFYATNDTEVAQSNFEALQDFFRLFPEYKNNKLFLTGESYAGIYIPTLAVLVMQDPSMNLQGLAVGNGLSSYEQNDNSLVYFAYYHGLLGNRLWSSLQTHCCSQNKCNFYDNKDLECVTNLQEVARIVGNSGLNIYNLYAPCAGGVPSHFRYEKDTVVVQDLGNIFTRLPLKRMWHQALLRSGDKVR
# Chain of human cathepsin A (Cat A) (P10619 327-480 limits assumed): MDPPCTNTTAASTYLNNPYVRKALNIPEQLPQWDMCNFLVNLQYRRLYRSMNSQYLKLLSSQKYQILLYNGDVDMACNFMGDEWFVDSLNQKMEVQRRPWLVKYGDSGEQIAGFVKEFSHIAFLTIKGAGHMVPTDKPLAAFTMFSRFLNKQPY
# [22] = target: human carboxylesterase 1 (CES-1) (Homo sapiens, UniProt P23141); experiment: Hydrolysis of the carboxyl ester by carboxylesterase 1; format: biochemical
# Chain of human carboxylesterase 1 (CES-1) (P23141 18-567): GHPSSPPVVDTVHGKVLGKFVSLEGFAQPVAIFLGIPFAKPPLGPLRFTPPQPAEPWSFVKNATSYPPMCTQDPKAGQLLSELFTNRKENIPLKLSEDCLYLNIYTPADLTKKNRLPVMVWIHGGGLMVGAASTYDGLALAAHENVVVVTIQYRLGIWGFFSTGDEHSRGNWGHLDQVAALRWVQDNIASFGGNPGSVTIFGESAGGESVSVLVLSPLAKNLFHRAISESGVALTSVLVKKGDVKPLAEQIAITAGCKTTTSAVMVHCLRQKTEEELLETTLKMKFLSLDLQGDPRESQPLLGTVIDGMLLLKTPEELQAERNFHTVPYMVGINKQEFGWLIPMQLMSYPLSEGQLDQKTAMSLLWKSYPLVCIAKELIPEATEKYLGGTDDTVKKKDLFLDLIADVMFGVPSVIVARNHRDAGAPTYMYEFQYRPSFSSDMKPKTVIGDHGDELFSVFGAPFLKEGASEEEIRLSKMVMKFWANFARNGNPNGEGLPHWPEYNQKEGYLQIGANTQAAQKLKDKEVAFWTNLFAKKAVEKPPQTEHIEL
# recombinant human ADAL1 = target: T1, recombinant human ADAL1 (Homo sapiens, UniProt Q6DHV7); experiment: ADAL1-mediated demethylation assay; format: biochemical; settings: ADAL1, pH 6.7, 37°C
# T1 sequence (Q6DHV7 1-355): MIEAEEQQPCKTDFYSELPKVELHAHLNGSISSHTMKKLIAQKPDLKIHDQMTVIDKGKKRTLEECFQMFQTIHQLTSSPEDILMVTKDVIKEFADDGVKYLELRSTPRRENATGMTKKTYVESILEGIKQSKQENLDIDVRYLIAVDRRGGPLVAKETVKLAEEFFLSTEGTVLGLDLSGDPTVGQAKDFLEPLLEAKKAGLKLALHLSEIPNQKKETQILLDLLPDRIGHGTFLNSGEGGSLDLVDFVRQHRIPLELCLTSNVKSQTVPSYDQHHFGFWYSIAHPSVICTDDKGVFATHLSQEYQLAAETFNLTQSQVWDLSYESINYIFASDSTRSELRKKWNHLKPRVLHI
# CEM cells [23] = experiment: Lactic acid production, CEM; settings: 7 days, normalised to rDNA
# HepG2 cells [24] = experiment: Lactic acid production, HepG2; settings: 7 days, normalised to rDNA
structure (smiles),measurement,setting,value
"COc1nc(N)nc2c1ncn2[C@@H]1O[C@H](COP(=O)(N[C@@H](C)C(=O)OC(C)C)Oc2ccccc2)[C@@H](O)[C@@]1(C)F (stereo partly drawn) [PSI-353661, (S)-2-{(S)-[(1R,4R,5R)-5-(2-amino-6-methoxy-purin-9-yl)-4-(R)-fluoro-3-hydroxy-4-methyl-tetrahydro-furan-2-ylmethoxy]-phenoxy-phosphorylamino}-propionic acid isopropyl ester]",EC50,[1],4.5 ± 0.7 nM
same,EC90,[1],10.5 ± 0.7 nM
same,EC50,[2],3 ± 1.4 nM
same,EC90,[2],8.5 ± 0.7 nM
same,EC50,[3],6.5 ± 2.1 nM
same,EC90,[3],14 ± 1.4 nM
same,EC50,[4],3.5 nM
same,EC90,[4],8.6 nM
same,EC50,[5],1.6 nM
same,EC90,[5],11.2 nM
same,CC50,Huh7 cells,80000 ± 6000 nM
same,CC50,HepG2 cells [6],> 100000 nM
same,CC50,BxPC3 cells,> 100000 nM
same,CC50,CEM cells [7],> 100000 nM
same,effect on mitochondrial DNA content,"HepG2 cells [8]; up to 100 μM, 14 days",did not affect mitochondrial DNA content
same,CC90,HepG2 cells [8]; read-out: CC90 mtDNA,> 100000 nM
same,CC90,HepG2 cells [8]; read-out: CC90 rDNA,> 100000 nM
same,effect on mitochondrial DNA content,"CEM cells [9]; up to 100 μM, 14 days",did not affect mitochondrial DNA content
same,CC90,CEM cells [9]; read-out: CC90 mtDNA,> 100000 nM
same,CC90,CEM cells [9]; read-out: CC90 rDNA,> 100000 nM
same,IC50,[10],> 50000 nM
same,IC50,[11],45000 ± 2000 nM
same,EC90,[12],12 ± 4 nM
same,EC90 fold change,[13],0.7
same,EC90,"[13]; read-out: EC90 Mutant replicon, S96T/N142T, luciferase-based assay",8.7 ± 3.7 nM
same,EC90,[14],9 nM and 9.3 nM
same,EC90 fold change,[15],1.5
same,EC90,"[15]; read-out: EC90 Mutant replicon, S282T, RT-PCR assay",14 ± 2.6 nM
same,EC90 fold change,[16],0.8
same,EC90,"[16]; read-out: EC90 Mutant replicon, C316Y, luciferase-based assay",9.8 ± 3.5 nM
same,EC90 fold change,[17],1.0
same,EC90,"[17]; read-out: EC90 Mutant replicon, M414T, luciferase-based assay",12 ± 2.2 nM
same,EC90 fold change,[18],0.8
same,EC90,"[18]; read-out: EC90 Mutant replicon, M423T, luciferase-based assay",9.7 ± 1.9 nM
same,EC90 fold change,[19],1.0
same,EC90,"[19]; read-out: EC90 Mutant replicon, P495L, luciferase-based assay",12 ± 0.34 nM
same,reduction of HCV replicon RNA,"ET-Lunet replicon cells; 8 nM (2× EC50), end of first 14-days, no G418",1 log
same,decrease in HCV replicon RNA,"ET-Lunet replicon cells; 20 nM dose, end of first 14-days, no G418",> 4 log
same,clearance of replicon RNA (colony formation after 14 days G418 without compound),ET-Lunet replicon cells; 20 nM,partial clearance
same,HCV RNA level,"ET-Lunet replicon cells; 40 and 80 nM doses, by day 10",undetectable
same,clearance of replicon RNA (colony formation after 14 days G418 without compound),ET-Lunet replicon cells; 40 and 80 nM,completely eliminated the replicon
same,EC50,"ET-Lunet replicon cells; read-out: EC50 value, ET-Lunet replicon cells, value used to set clearance doses",4 nM
same,intracellular level of parent compound,[20],undetectable
same,specific activity of hydrolysis to PSI-353131,[21],0.80 µmol/min/mg
same,rate of hydrolysis (specific activity),"[22]; CES1, 100 μM substrate, 37 °C, not time-dependent",~0.034 µmol/min/mg
same,fraction converted to product PSI-353131,[22]; incubation with CES1,~10%
same,Km,recombinant human ADAL1,No activity
same,kcat,recombinant human ADAL1,No activity
same,kcat / Km,recombinant human ADAL1,No activity
same,Lactic acid (Fold change from untreated cells),CEM cells [23]; 0.1 μM,1.4 ± 0.36
same,Lactic acid (Fold change from untreated cells),CEM cells [23]; 1.0 μM,1.4 ± 0.10
same,Lactic acid (Fold change from untreated cells),CEM cells [23]; 10 μM,1.4 ± 0.31
same,Lactic acid (Fold change from untreated cells),CEM cells [23]; 50 μM,1.3 ± 0.40
same,Lactic acid (Fold change from untreated cells),HepG2 cells [24]; 0.1 μM,1.2 ± 0.35
same,Lactic acid (Fold change from untreated cells),HepG2 cells [24]; 1.0 μM,1.2 ± 0.29
same,Lactic acid (Fold change from untreated cells),HepG2 cells [24]; 10 μM,1.1 ± 0.06
same,Lactic acid (Fold change from untreated cells),HepG2 cells [24]; 50 μM,1.3 ± 0.31
